In general, EC50 refers to the concentration needed to bring the measured effect to its halfway point. A low value points to an effect from little substance.

“And” between values parts separate entries of the source, which are not always exact repeats. Equal entries are not always repeated. No end group written: not given here.

Assay type in all cases: cell-based
Experiment [1] addresses T1, (L1.35P, I3.24F, W4.61G)-MRGPRX1 (Homo sapiens, UniProt Q96LB2, I94F/L30P/W158G).
T1 construct: host or cells: COS-7
Nature of the experiment: Intracellular Ca2+ mobilization in COS-7 cells, Gαq16-fused receptor, (L1.35P, I3.24F, W4.61G)-MRGPRX1. The source says: (§1) ORFs of MRGPRX1 and MRGPRX2 purchased from OriGene and Mm-MRGPRX1 synthesized in Genscript were C-terminally fused with the human Gαq16 protein as described previously ([23]). Briefly, the human Gαq16 ORF clone (OriGene) was amplified and ligated into the XbaI site of a pcDNA6 plasmid (Invitrogen). Then, MRGPRX1 and MRGPRX2 were subcloned (Table S1) into the NotI–XbaI site of the Gαq16-ligated pcDNA6 plasmids. MRGPRX1 and two mutants were constructed using the PrimeSTAR Mutagenesis Basal Kit with mutation oligos (Table S1).
(§2) COS-7 cells were purchased from American Type Culture Collection and cultured in Dulbecco's modified Eagle's medium (Nacalai Tesque) supplemented with 10% fetalbovine serum (Sigma) and maintained at 37°C under 5% CO2. Intracellular Ca^2+ mobilization was measured as previously described ([42], [43]). In brief, 5 × 10^5 COS-7 cells were spread on a 60-mm dish 1 day before transfection. About 10 μg of GPCR expression vector were transfected into the cells using Lipofectamine 2000 (Thermo Fisher Scientific) according to the manufacturer’s instructions. After the 24-h incubation, 6 × 10^4 cells per well were respread on a 96-well plate for the following assay. Each MRGPRX mutant fused with human Gαq16 for expression at the cell membrane was confirmed by immunostaining using the anti-Gαq16 antibody (Ori Gene TA318890) (Fig. S5). SP (PEPTIDE […]) and BAM8–22 (Tocris Bioscience) were used for the assays. Real-time Ca^2+ mobilization of Gαq16-fused MRGPRX1/2 was measured using a Ca5 kit (Molecular Devices) and FlexStation III according to the manufacturer’s instructions. The calcium accumulation data were analyzed using Prism, version 6 (GraphPad) and found to fit a sigmoidal concentration–response curve, and the means ± SEMs of EC50 were calculated.

Experiment [2] deals with (I3.24F, W4.61G)-Mm-MRGPRX1 (Macaca mulatta, UniProt A0A5F7ZSN8, I94F/W158G). The experiment can be described thus: Intracellular Ca2+ mobilization in COS-7 cells, Gαq16-fused receptor, (I3.24F, W4.61G)-Mm-MRGPRX1. As to conditions: SP.
(I3.24F, W4.61G)-Mm-MRGPRX1, sequence (A0A5F7ZSN8 1-322 I94F/W158G): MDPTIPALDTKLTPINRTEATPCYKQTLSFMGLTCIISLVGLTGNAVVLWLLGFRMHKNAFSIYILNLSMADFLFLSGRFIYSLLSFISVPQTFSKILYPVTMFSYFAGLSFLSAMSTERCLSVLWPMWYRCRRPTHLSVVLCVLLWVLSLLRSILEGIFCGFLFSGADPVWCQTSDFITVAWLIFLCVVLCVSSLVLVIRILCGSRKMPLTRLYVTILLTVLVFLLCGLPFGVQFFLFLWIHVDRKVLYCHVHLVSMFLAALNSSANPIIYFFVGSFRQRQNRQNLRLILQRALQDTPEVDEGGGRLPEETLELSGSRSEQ
Excerpt: as §1
(§3) COS-7 cells were purchased from American Type Culture Collection and cultured in Dulbecco's modified Eagle's medium (Nacalai Tesque) supplemented with 10% fetalbovine serum (Sigma) and maintained at 37°C under 5% CO2. Intracellular Ca^2+ mobilization was measured as previously described ([42], [43]). In brief, 5 × 10^5 COS-7 cells were spread on a 60-mm dish 1 day before transfection. […] Real-time Ca^2+ mobilization of Gαq16-fused MRGPRX1/2 was measured using a Ca5 kit (Molecular Devices) and FlexStation III according to the manufacturer’s instructions. The calcium accumulation data were analyzed using Prism, version 6 (GraphPad) and found to fit a sigmoidal concentration–response curve, and the means ± SEMs of EC50 were calculated.
For orientation: A change in cytosolic calcium serves as a functional read-out for many receptors and channels.

For the next experiment, the target named is T2, (I3.24F, W4.61G)-MRGPRX1 (Homo sapiens, UniProt Q96LB2, I94F/W158G).
T2 construct: host or cells: COS-7
T2 sequence (Q96LB2 whole entry I94F/W158G): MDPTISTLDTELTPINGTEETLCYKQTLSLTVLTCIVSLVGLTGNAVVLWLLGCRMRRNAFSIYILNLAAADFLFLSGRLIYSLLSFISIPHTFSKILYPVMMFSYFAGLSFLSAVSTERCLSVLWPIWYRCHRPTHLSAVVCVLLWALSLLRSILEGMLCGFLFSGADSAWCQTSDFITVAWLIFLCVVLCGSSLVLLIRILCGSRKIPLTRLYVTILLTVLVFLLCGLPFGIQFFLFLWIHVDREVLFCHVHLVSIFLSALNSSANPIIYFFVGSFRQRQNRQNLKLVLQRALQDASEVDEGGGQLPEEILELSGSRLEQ
The experiment can be described thus: Intracellular Ca2+ mobilization in COS-7 cells, Gαq16-fused receptor, (I3.24F, W4.61G)-MRGPRX1.
Excerpt: as §1, §2

The target of the next experiment is (F1.35L)-Mm-MRGPRX1 (Macaca mulatta, UniProt A0A5F7ZSN8, F30L). Nature of the experiment: Intracellular Ca2+ mobilization in COS-7 cells, Gαq16-fused receptor, (F1.35L)-Mm-MRGPRX1. The note with it: BAM8–22; COS-7, Ca2+ mobilization; mean ± standard error of three replicate analyses; read-out: Maximal response.
(F1.35L)-Mm-MRGPRX1, sequence (A0A5F7ZSN8 1-322 F30L): as the sequence (A0A5F7ZSN8 1-322 I94F/W158G) above, with F30L, F94I, G158W counted along it
Excerpt: as §1, §3

The target in the next experiment is T3, (P1.35L)-MRGPRX2 (Homo sapiens, UniProt Q96LB1, P33L).
T3 construct: host or cells: COS-7
T3 sequence (Q96LB1 1-330 P33L): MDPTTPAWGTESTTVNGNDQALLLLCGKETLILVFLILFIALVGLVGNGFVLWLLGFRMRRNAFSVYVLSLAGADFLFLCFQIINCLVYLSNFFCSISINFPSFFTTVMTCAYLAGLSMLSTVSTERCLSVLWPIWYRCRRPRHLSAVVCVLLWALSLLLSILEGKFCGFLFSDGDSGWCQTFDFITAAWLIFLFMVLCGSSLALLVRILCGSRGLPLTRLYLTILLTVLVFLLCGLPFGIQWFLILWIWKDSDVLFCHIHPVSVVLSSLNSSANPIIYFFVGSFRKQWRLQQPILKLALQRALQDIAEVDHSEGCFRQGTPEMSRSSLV
The experiment can be described thus: Intracellular Ca2+ mobilization in COS-7 cells, Gαq16-fused receptor, (P1.35L)-MRGPRX2. As to conditions: COS-7, Ca2+ mobilization.

The target in the next experiment is T4, (L1.35P)-MRGPRX1 (Homo sapiens, UniProt Q96LB2, L30P).
T4 construct: host or cells: COS-7
T4 sequence (Q96LB2 whole entry L30P): as the sequence (Q96LB2 whole entry I94F/W158G) above, with L30P, F94I, G158W counted along it
Nature of the experiment: Intracellular Ca2+ mobilization in COS-7 cells, Gαq16-fused receptor, (L1.35P)-MRGPRX1.
Excerpt: as §1, §3

In another experiment the target is T5, (S1.43A)-MRGPRX1 (Homo sapiens, UniProt Q96LB2, S38A).
T5 construct: host or cells: COS-7
T5 sequence (Q96LB2 whole entry S38A): as the sequence (Q96LB2 whole entry I94F/W158G) above, with S38A, F94I, G158W counted along it
Nature of the experiment: Intracellular Ca2+ mobilization in COS-7 cells, Gαq16-fused receptor, (S1.43A)-MRGPRX1. As to conditions: BAM8–22.
Excerpt: as §1, §3

A further experiment has as its target T6, MRGPRX1 WT (Homo sapiens, UniProt Q96LB2).
T6 construct: host or cells: COS-7
The experiment can be described thus: Intracellular Ca2+ mobilization in COS-7 cells, Gαq16-fused receptor, wildtype MRGPRX1. As to conditions: BAM8–22.
Excerpt: as §1, §3

The next experiment deals with T7, Mm-MRGPRX1 WT (Macaca mulatta, UniProt A0A5F7ZSN8).
T7 construct: host or cells: COS-7
T7 sequence (A0A5F7ZSN8 1-322): as the sequence (A0A5F7ZSN8 1-322 I94F/W158G) above, with F94I, G158W counted along it
The experiment can be described thus: Intracellular Ca2+ mobilization in COS-7 cells, Gαq16-fused receptor, intact Mm-MRGPRX1. As to conditions: BAM8–22.
Excerpt: as §1, §3

The mark [3] stands for this setting: COS-7, SP, compared with intact MRGPRX2, mean ± standard error of three replicate analyses, read-out: Maximal response (Emax).
Setting [4] is: SP, COS-7, Gαq16-fused, Ca2+ mobilization, three replicate analyses.
Where [5] appears, read: COS-7, Ca2+ mobilization, mean ± standard error of three replicate analyses, read-out: Maximal response.
Where [6] appears, read: COS-7, Gαq16-fused, Ca2+ mobilization, three replicate analyses.

T1 sequence (Q96LB2 whole entry L30P/I94F/W158G): as the sequence (Q96LB2 whole entry I94F/W158G) above, with L30P counted along it
T6 sequence (Q96LB2 whole entry): as the sequence (Q96LB2 whole entry I94F/W158G) above, with F94I, G158W counted along it
Method for (P1.35L)-MRGPRX2: COS-7 cells were purchased from American Type Culture Collection and cultured in Dulbecco's modified Eagle's medium (Nacalai Tesque) supplemented with 10% fetalbovine serum (Sigma) and maintained at 37°C under 5% CO2. Intracellular Ca^2+ mobilization was measured as previously described ([42], [43]). In brief, 5 × 10^5 COS-7 cells were spread on a 60-mm dish 1 day before transfection. About 10 μg of GPCR expression vector were transfected into the cells using Lipofectamine 2000 (Thermo Fisher Scientific) according to the manufacturer’s instructions. After the 24-h incubation, 6 × 10^4 cells per well were respread on a 96-well plate for the following assay. […] Real-time Ca^2+ mobilization of Gαq16-fused MRGPRX1/2 was measured using a Ca5 kit (Molecular Devices) and FlexStation III according to the manufacturer’s instructions. The calcium accumulation data were analyzed using Prism, version 6 (GraphPad) and found to fit a sigmoidal concentration–response curve, and the means ± SEMs of EC50 were calculated.

For `CSCC[C@H](NC(=O)[C@H](CC(C)C)NC(=O)CNC(=O)[C@H](Cc1ccccc1)NC(=O)[C@H](Cc1ccccc1)NC(=O)[C@H](CCC(N)=O)NC(=O)[C@H](CCC(N)=O)NC(=O)[C@@H]1CCCN1C(=O)[C@H](CCCCN)NC(=O)[C@@H]1CCCN1C(=O)[C@@H](N)CCCNC(=N)N)C(N)=O` [SP, substance P], the “EC50 compared with MRGPRX2-SP (in words)” value in experiment [1] (COS-7, Ca2+ mobilization) was “comparable to that of MRGPRX2-SP”; on (I3.24F, W4.61G)-MRGPRX1 (COS-7, Ca2+ mobilization), “comparable to that of MRGPRX2-SP”. The Emax in [1] (setting [3]) came out at 39.5 ± 3%; in experiment [2] (setting [5]), 100 ± 5.28%; at (I3.24F, W4.61G)-MRGPRX1 (setting [3]) it was 42.1 ± 2.28%. Moreover, the EC50 in experiment [1] (setting [4]) was 1.66 µM; in [2] (setting [6]), 0.2 µM and 0.69 µM; at (I3.24F, W4.61G)-MRGPRX1 (setting [4]) it was 2.24 µM.
As for “VGRPEWWMDYQKRYG [BAM8–22, bovine adrenal medulla peptide 8–22]”, the Emax is 100 ± 1.94% on (F1.35L)-Mm-MRGPRX1, 102 ± 9.64% at (S1.43A)-MRGPRX1 (setting [5]), 100 ± 7.78% on MRGPRX1 WT (setting [5]) and 66.5 ± 2.91% at Mm-MRGPRX1 WT (setting [5]). Also, on (P1.35L)-MRGPRX2, the “Response to 3 μM BAM8–22” value turned out to be 30.23 ± 1.08%. The “Response to 3 μM BAM8–22, of that of wildtype MRGPRX1” value on (L1.35P)-MRGPRX1 (3 μM BAM8–22, COS-7, Ca2+ mobilization) is 48.48 ± 1.08%. Further, the concentration giving a half-maximal response (EC50) at (L1.35P)-MRGPRX1 (BAM8–22, COS-7, Gαq16-fused, Ca2+ mobilization, three replicate analyses) was 3.16 µM; on (S1.43A)-MRGPRX1 (setting [6]) it was 0.2 µM; on MRGPRX1 WT (setting [6]), 0.17 µM; at Mm-MRGPRX1 WT (setting [6]), 2.57 µM.

These data come from publication PMC11910321, “Evolutionary scenarios for the specific recognition of nonhomologous endogenous peptides by G protein–coupled receptor paralogs” (The Journal of Biological Chemistry, 2024).
